Data: patent US20070259087A1, “Antimicrobial Peptides” (Novozymes A/S, priority 2003, published 2007)

Test system: E. coli TOP10
Type: cell-based
Details: end point OD450 after 14 hours, 37 degrees Celsius
Method: A range of synthetic antimicrobial polypeptides were expressed in E. coli TOP10 (Invitrogen) using arabinose as inducer, as disclosed in Example 1 of International patent application WO 00/73433 (with minor modifications). […] Briefly, fresh overnight cultures grown in RM medium containing 0.2% glucose and ampicillin (100 μg/ml) were diluted 300-fold into 150 microliter of RM containing 0.2% glycerol and ampicillin (100 μg/ml) and different concentrations of arabinose (0, 0.01% or 0.1%) in a microtiter plate and incubated at 37 degrees Celsius with vigorous shaking. The growth curve was monitored by measuring OD450 using a Bioscreen C Microbiology reader (Thermo Electron Corporation) at intervals of 30 minutes for 14 hours (see Invitrogen protocol of the pBAD/gill A, B and C vectors catalogue nos. V450-01 for buffer and media composition). The percentage of growth inhibition was calculated as the end point OD measurement of each sample divided by the end point OD measurement obtained from cells containing the control vector and multiplied by 100. The formula is the following: [formula] where “blank OD” corresponds to the OD of an empty well.

Sequence	Growth inhibition using 0.01% arabinose (%)	Growth inhibition using 0.1% arabinose (%)
GILNIIGRAVKTVLESIR (Synthetic antimicrobial peptide) [SEQ ID NO:25]	97	99
GILNKLRKKLKRVLQRIL (Synthetic antimicrobial peptide) [SEQ ID NO:27]	84	97
GILSKLKKAIKRILQDVLRWL (Synthetic antimicrobial peptide) [SEQ ID NO:43]	82	99
GILSKLKKKAKNAVKMFCRWL (Synthetic antimicrobial peptide) [SEQ ID NO:46]	92	96
GILSMLERRWSMYCSIFCRWL (Synthetic antimicrobial peptide) [SEQ ID NO:45]	98	100
GLFRKLKKTIKRVLKHVP (Synthetic antimicrobial peptide) [SEQ ID NO:31]	86	96
GLFRKLRKKVKKVLKHVL (Synthetic antimicrobial peptide) [SEQ ID NO:23]	91	98
GLFSIIMRAVKKVWQRVR (Synthetic antimicrobial peptide) [SEQ ID NO:9]	97	100
GLFSILKREIKRTFSNFYRWL (GLFSILKREIKRTFSMFYRWL; Synthetic antimicrobial peptide) [SEQ ID NO:41]	86	99
GLFSLLRKTIKKVLQHIR (Synthetic antimicrobial peptide) [SEQ ID NO:32]	91	99
GLFTKLRKATKRILEHVL (Synthetic antimicrobial peptide) [SEQ ID NO:3]	81	87
GLLEKLRKALKRILQHVL (Synthetic antimicrobial peptide) [SEQ ID NO:12]	91	97
GLLGKIRKEGRNFWRVFRRWL (GLLGKIRKEGRMFWRVFRRWL; Synthetic antimicrobial peptide) [SEQ ID NO:38]	86	92
GLLGKLKKELKNVLEHIYRWL (Synthetic antimicrobial peptide) [SEQ ID NO:42]	75	93
GLLGKLKRKIKKALEGIR (Synthetic antimicrobial peptide) [SEQ ID NO:35]	96	99
GLLKTIRKKIKRVLKHVR (Synthetic antimicrobial peptide) [SEQ ID NO:4]	96	99
GLLNKIKKTIKRAVQHVL (Synthetic antimicrobial peptide) [SEQ ID NO:18]	76	92
GLLNKLKKNVKNIVQHILRWL (Synthetic antimicrobial peptide) [SEQ ID NO:40]	77	95
GLLNKLKRALKKVVKHVR (Synthetic antimicrobial peptide) [SEQ ID NO:33]	84	94
GLLRILKKKAKKALQHIL (Synthetic antimicrobial peptide) [SEQ ID NO:37]	86	93

Sequence	Growth inhibition using 0.01% arabinose (%)	Growth inhibition using 0.1% arabinose (%)
GLLRKIKMKAKKVLKNIL (Synthetic antimicrobial peptide) [SEQ ID NO:22]	72	83
GLLRKLGKKIKRVVKHVG (Synthetic antimicrobial peptide) [SEQ ID NO:10]	98	100
GLLRKLRKEVKKVLSIFFRWL (Synthetic antimicrobial peptide) [SEQ ID NO:39]	97	99
GLLSILKRKSKRILKHIL (Synthetic antimicrobial peptide) [SEQ ID NO:24]	88	96
GLLSKIMKAVKRTLKHIL (Synthetic antimicrobial peptide) [SEQ ID NO:16]	89	99
GLLSKIRKKLKRVLQSIR (Synthetic antimicrobial peptide) [SEQ ID NO:20]	77	94
GLLSKLGKAVKNILEDVV (Synthetic antimicrobial peptide) [SEQ ID NO:28]	98	100
GLLSKLKKTVKRVVKHVR (Synthetic antimicrobial peptide) [SEQ ID NO:19]	84	99
GLLSKLKRKIKKAVKHIL (Synthetic antimicrobial peptide) [SEQ ID NO:30]	82	95
GLLSMLGKAVKRAVQHVL (Synthetic antimicrobial peptide) [SEQ ID NO:26]	97	100
GLLSRLRRATKIILKGIR (Synthetic antimicrobial peptide) [SEQ ID NO:14]	72	88
GLVTLLKKAMKNALEDVL (Synthetic antimicrobial peptide) [SEQ ID NO:21]	98	99
GLWNMLKKKLKKIAQGIR (Synthetic antimicrobial peptide) [SEQ ID NO:15]	73	88
GLWRKLKKALKRAVQGVR (Synthetic antimicrobial peptide) [SEQ ID NO:5]	91	96
GLWRKLRRKAKKVLQHIL (Synthetic antimicrobial peptide) [SEQ ID NO:13]	94	100
GLWSSIKKEAKHALKHIL (Synthetic antimicrobial peptide) [SEQ ID NO:29]	55	81
GMLIKLEMEAKKVVKNVL (Synthetic antimicrobial peptide) [SEQ ID NO:17]	96	99
GMLKKLKKKTKRAFSVFCRWL (Synthetic antimicrobial peptide) [SEQ ID NO:44]	96	98
GMLRKLKRKVKRTLQHVL (Synthetic antimicrobial peptide) [SEQ ID NO:8]	78	88
